This passage reports RP-LC retention time results from the METLIN SMRT retention time set (Domingo-Almenara et al. 2019).

The nature of this series: gradient 5% acetonitrile 3 min, to 50% in 2 min, to 85% in 15 min, held 3 min, 100 µL/min. The following applies: column: Zorbax Extend-C18 2.1 x 50 mm; eluents: water / acetonitrile, 0.1% formic acid. The essentials:
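Over 3 months, pure standards in mixtures of ~100 molecules were run by HPLC coupled to a quadrupole time-of-flight mass spectrometer in positive and negative ionization mode. The column was a Zorbax Extend-C18 (2.1 × 50 mm, 1.8 μm) at 100 μL/min, eluted with water and acetonitrile each holding 0.1% formic acid, with 40 μL dead and 900 μL dwell volumes. Retention time was determined from adduct peaks chosen by software and checked manually.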
Consider `COc1ccccc1-n1ccn2cc(-c3cccc(Cl)c3)nc2c1=O`, for which the RP-LC retention time was found to be 873 s. Take `O=C(Nc1cc(-c2cccs2)no1)c1cccc(F)c1`: the RP-LC retention time amounted to 959 s. The figure for `Cc1ccc(-c2csc(NC(=O)COc3cc(C)cc(C)c3)n2)cc1` is 1270 s; for `COc1cc(CC(=O)N2CCc3cc(-c4cc(C)no4)ccc32)cc(OC)c1` it is 951 s. The same measure for `CN1CCc2nnc(C3CCCN3C(=O)Nc3cc(Cl)cc(Cl)c3)n2CC1` (centres undefined): 566 s; for `CSc1cccc(NC(=O)Cn2c(=O)n(-c3ccc(C)cc3)c(=O)c3c2cc(C)n3C)c1`: 910 s. The same measure for `Nc1c(Cl)ncnc1NCCO`: 557 s; for `CCN1c2cc(F)ccc2C(=O)NC12CCN(C(=O)c1ccc3c(c1)OCO3)CC2`: 771 s. The compound `OC[C@H]1O[C@@H](n2cnc3c(NC4CCCCC4)ncnc32)C(O)[C@H]1O` (some centres undefined) displayed an RP-LC retention time of 583 s. Regarding `Cc1ccc2[nH]c(=O)nc(-c3ccccc3)c2c1`, the RP-LC retention time stood at 648 s. The same measure for `Cc1noc(CNC(=O)c2ccc(OCc3nc(-c4ccco4)cs3)cc2)n1`: 758 s.

As to `CS(=O)(=O)Nc1cccc(NC(=O)c2coc(NC(=O)c3ccccc3)n2)c1`, the RP-LC retention time was 656 s. The same measure for `CCNC(=O)N1CCc2nc(OCC)ccc2C1`: 606 s; for `CC(C)c1noc(C2(NC(=O)c3ccc(Cl)cc3)CCCCC2)n1`: 1100 s. The figure for `O=C(CSc1ncnc2c1oc1ccccc12)Nc1ccc(F)cc1F` is 934 s; for `COc1cc(Cl)c(CC(=O)c2c[nH]c3ccccc23)cc1OC` it is 883 s. Compound `COCC(=O)N(CC(=O)N1CCc2sccc2C1COc1ccc(Cl)c(C)c1)C1CC1` (centres undefined) showed an RP-LC retention time of 960 s. The same measure for `CC(C)c1nnc2n1C(C(=O)NCC(F)F)CCCC2` (centres undefined): 580 s. The figure for `O=C(N1CCC(Cc2ccc(COCc3ccncc3)cc2)CC1)C1(c2ccccc2)CC1` is 795 s; for `O=C(NC1CCCc2ccccc21)c1cc2sccc2n1Cc1ccc(Cl)cc1` (centres undefined) it is 1320 s; for `CCN(CC)C(=O)Cn1c(C(F)(F)F)nc2cc3c(cc21)OCCO3` it is 811 s. The same measure for `Cc1cc(N2CCN(S(=O)(=O)c3ccc(C)c(C)c3)CC2)nc(NC2CCCCC2)n1`: 876 s; for `Cc1oc(C2CCN(C(=O)Cc3ccccc3Cl)CC2)nc1C(=O)N1CCCC1`: 820 s. The compound `CCN(CC)CCCNC(=O)C1CCCN(c2ncc(-c3ccccc3)cn2)C1` (centres undefined) returned an RP-LC retention time of 673 s. The figure for `COc1cc(OC)c(NC(=O)Cc2nnc(-c3cnccn3)o2)cc1Cl` is 647 s; for `Cc1ccc2nc3sc(C(=O)NCC4COc5ccccc5O4)cc3c(=O)n2c1` (centres undefined) it is 819 s; for `O=C(c1cc(F)ccc1Cl)N1CCc2nc(-c3ccc(F)cc3)ncc2C1` it is 1020 s. The same measure for `CC(NC(=O)C1CCCN(c2nc3ccsc3c(=O)n2Cc2ccccc2)C1)c1ccc(F)cc1` (centres undefined): 951 s. The figure for `Cc1sc(-c2nc(C(C)C)cs2)cc1S(=O)(=O)N1CCN(c2ccccn2)CC1` is 908 s; for `CCc1ccc(CNC(=O)CCc2nc(N3CCCC3)c3c(C)noc3n2)cc1` it is 865 s; for `CCCn1cc(CCNC(=O)c2ccc(F)c(F)c2)c2cccnc21` it is 791 s. For the compound `CC(C)CCNC(=O)C1Cn2cccc2C(=O)N1CC(C)C` (centres undefined), the RP-LC retention time was found to be 799 s. Turning to `CCOC(=O)c1cnc2nc(C)ccc2c1Nc1ccc(F)c(F)c1`, the RP-LC retention time was 703 s. The same measure for `COC(=O)c1c(C)[nH]c(C(=O)N2CCCC(C(=O)NCCCN3CCCC3)C2)c1C` (centres undefined): 584 s. The same measure for `COc1cc(OC)cc(C(=O)N2CCc3cc(-c4csc(C)n4)ccc32)c1`: 977 s; for `CC1=Nc2ccccc2N=C(NC(=O)Nc2cccc(Cl)c2)C1c1ccc(Cl)cc1` (centres undefined): 1170 s; for `Cn1cnc(S(=O)(=O)N2CCc3c(c(-c4nncn4Cc4ccccc4)nn3C)C2)c1`: 682 s.

Take `COc1cccc(NC(=O)c2sc(C)nc2-c2ccc([N+](=O)[O-])cc2)c1`: the RP-LC retention time was 849 s. The figure for `C=CCn1c(=O)c2ccccc2n(Cc2nc(-c3ccc(F)c(Cl)c3)no2)c1=O` is 1140 s. Compound `Cc1cc(C)cc(S(=O)(=O)N2CCC(n3cnc4c(C)cccc4c3=O)CC2)c1` had an RP-LC retention time of 1070 s. In the case of `CCNC(=O)c1cc2cc(Cl)ccc2[nH]1`, the RP-LC retention time is 806 s. The figure for `O=C1CCc2cc(NC(=O)C3CC3)ccc2N1` is 599 s; for `CC(C)n1nccc1-c1csc(S(=O)(=O)N2CCC3(CC2)OCCO3)c1` it is 922 s; for `CCOC(=O)CNC(=O)N1CCCN(c2nc3cc(Br)ccc3n3cccc23)CC1` it is 671 s.

`CCOc1cc(=O)n2c(c1C(=O)Nc1cc(OC)c(OC)c(OC)c1)CCCC2` came in with an RP-LC retention time of 967 s. The figure for `CCOC(=O)c1ccccc1NC(=O)N(Cc1cc(=O)[nH]c2ccccc12)C(C)C` is 891 s. The figure for `COCCOC1CN(C2CCN(Cc3cccc(C)c3)CC2)C12CCCCC2` (centres undefined) is 573 s; for `N#Cc1ccc(NC(=O)C2CCN(S(=O)(=O)c3cc(-c4noc(C5CCC5)n4)cs3)CC2)cc1` it is 1050 s. `CCOc1ccc(NS(=O)(=O)c2cc(C(=O)N3CCN(c4ccccn4)CC3)n[nH]2)cc1` showed an RP-LC retention time of 619 s. The same measure for `CN(CCNC(=O)c1ccc2c(c1)N(S(C)(=O)=O)CC2)C1CCCCC1`: 610 s; for `COc1cc2c(cc1OC)C1C(C(=O)N3CCN(c4ccccn4)CC3)c3ccccc3C(=O)N1CC2` (centres undefined): 606 s; for `CC(=O)Nc1cccc(-c2nc(-c3ccc4c(c3)oc(=O)n4C(C)C)no2)c1`: 936 s. The figure for `Cc1nnc2c(=O)n(CC(=O)NCc3ccccc3)c3cccnc3n12` is 654 s. `Fc1cccc(-c2noc(-c3ccc(N4CCN(CCOc5ccc(Cl)cc5)CC4)nc3)n2)c1` showed an RP-LC retention time of 920 s.

Consider `O=S(=O)(Nc1ccc(F)c(F)c1)c1c[nH]c2ncccc12`, for which the RP-LC retention time worked out at 739 s. The figure for `COc1ccc(NS(=O)(=O)c2cc(-c3nc(C)c(C(=O)N4CCCC4)s3)n(C)c2)cc1OC` is 727 s; for `CCn1cnc2ccc(-c3noc(COc4ccc(F)cc4)n3)cc21` it is 754 s. The figure for `O=C(NC1CCCCC1)C1COC2(CCN(C(=O)c3ccco3)CC2)N1C(=O)c1ccccc1` (centres undefined) is 748 s; for `CCN(CC)C(=O)c1ccc2c(c1)N(CC(=O)NCc1ccccn1)C(=O)CO2` it is 594 s.
